# Measured values reported in patent publication US4751302A, “Indazole derivatives” (priority 1982, dated 1988).
# How the values were obtained:
# [1] = test system: Carrageenin edema in rat's paw; test: Carrageenin Edema Test in Rat's Paw (anti-inflammatory activity, Table 1); type: in vivo; conditions: 100 mg/kg oral, hydrochloride, rat
# Description: An anti-inflammatory activity was measured by orally administering 100 mg/kg of a hydrochloride of the indazole derivative of this invention as set forth in Table 1 to an animal in accordance with the standard method of Carrageenin Edema Test in Rat's Paw described in C. A. Winter et al., Proc. Soc. Exp. Biol. Med., 111, 544 (1962).
# [2] = in vivo; conditions: mouse, ip, intraperitoneal, hydrochloride, male ddy mice
Structure (SMILES),inhibition in vivo at 100 mg/kg [1] [%],LD50 [2] [mg/kg]
"Nc1nn(CCCCCCN2CCCCC2)c2ccc(O)cc12 [(34), 1-(6-Piperidinohexyl)-3-amino-5-hydroxyindazole]",26,231
"CC(CCn1nc(N)c2cc(O)ccc21)N1CCCCC1 (stereo not shown) [(35), 1-(3-Piperidinobutyl)-3-amino-5-hydroxyindazole]",47,246
"CC(C)CC(CCn1nc(N)c2cc(O)ccc21)N1CCCCC1 (stereo not shown) [(36), 1-(3-Piperidino-5-methylhexyl)-3-amino-5-hydroxyindazole]",32,251
"CC1CCCCN1CCCn1nc(N)c2cc(O)ccc21 (stereo not shown) [(37), 1-[3-(2-Methylpiperidino)propyl]-3-amino-5-hydroxyindazole]",48,267
"CC1CCCC(C)N1CCCn1nc(N)c2cc(O)ccc21 (stereo not shown) [(38), 1-[3-(2,6-Dimethylpiperidino)propyl]-3-amino-5-hydroxyindazole]",31,278
"Nc1nn(CCCN2CCC(O)CC2)c2ccc(O)cc12 [(39), 1-[3-(4-Hydroxypiperidino)propyl]-3-amino-5-hydroxyindazole]",35,311
"Nc1nn(CCCN2CCC(Cl)CC2)c2ccc(O)cc12 [(40), 1-[3-(4-Chloropiperidino)propyl]-3-amino-5-hydroxyindazole]",64,335
"Nc1nn(CCCN2CCCCCC2)c2ccc(O)cc12 [(41), 1-(3-Homopiperidinopropyl)-3-amino-5-hydroxyindazole]",36,340
"CN1CCN(CCCn2nc(N)c3cc(O)ccc32)CC1 [(42), 1-[3-(4-Methylpiperazino)propyl]-3-amino-5-hydroxyindazole]",24,341
"Nc1nn(CCCN2CCCC2)c2ccc(O)cc12 [(43), 1-(3-Pyrrolidinopropyl)-3-amino-5-hydroxyindazole]",36,211
"Nc1nn(CCCN2CCOCC2)c2ccc(O)cc12 [(44), 1-(3-Morpholinopropyl)-3-amino-5-hydroxyindazole]",46,368
"CCN(CC)CCCNc1n[nH]c2cccc(Cl)c12 [(45), 3-(3-Diethylaminopropylamino)-4-chloroindazole]",61,271
"CCN(CC)CCCNc1n[nH]c2cc(Cl)ccc12 [(47), 3-(3-Diethylaminopropylamino)-6-chloroindazole]",58,278
"CCN(CC)CCCNc1n[nH]c2c(Cl)cccc12 [(48), 3-(3-Diethylaminopropylamino)-7-chloroindazole]",57,291
"CCN(CC)CCCNc1n[nH]c2ccc(N)cc12 [(49), 3-(3-Diethylaminopropylamino)-5-aminoindazole]",55,244
"CCN(CC)CCCNc1n[nH]c2ccc(OC)cc12 [(50), 3-(3-Diethylaminopropylamino)-5-methoxyindazole]",52,200
"CCN(CC)CCCNc1n[nH]c2ccc(C)cc12 [(51), 3-(3-Diethylaminopropylamino)-5-methylindazole]",60,231
"CCCCN(CCCC)CCCNc1n[nH]c2ccc(Cl)cc12 [(52), 3-(3-Di-n-butylaminopropylamino)-5-chloroindazole]",61,211
"CC(CCNc1n[nH]c2ccc(Cl)cc12)N(C)C (stereo not shown) [(53), 3-(3-Dimethylaminobutylamino)-5-chloroindazole]",48,313
"CCN(CC)C(CCNc1n[nH]c2ccc(Cl)cc12)CC(C)C (stereo not shown) [(54), 3-(3-Diethylamino-5-methylhexylamino)-5-chloroindazole]",46,251
"Clc1ccc2[nH]nc(NCCCN3CCCCC3)c2c1 [(55), 3-(3-Piperidinopropylamino)-5-chloroindazole]",47,133
"Clc1ccc2[nH]nc(NCCCCCCN3CCCCC3)c2c1 [(56), 3-(6-Piperidinohexylamino)-5-chloroindazole]",29,145
"CC(CCNc1n[nH]c2ccc(Cl)cc12)N1CCCCC1 (stereo not shown) [(57), 3-(3-Piperidinobutylamino)-5-chloroindazole]",54,173
"CC(C)CC(CCNc1n[nH]c2ccc(Cl)cc12)N1CCCCC1 (stereo not shown) [(58), 3-(3-Piperidino-5-methylhexylamino)-5-chloroindazole]",40,180
"CC1CCCCN1CCCNc1n[nH]c2ccc(Cl)cc12 (stereo not shown) [(59), 3-[3-(2-Methylpiperidino)propylamino]-5-chloroindazole]",63,210

Structure (SMILES),inhibition in vivo at 100 mg/kg [1] [%],LD50 [2] [mg/kg]
"CC1CCCC(C)N1CCCNc1n[nH]c2ccc(Cl)cc12 (stereo not shown) [(60), 3-[3-(2,6-Dimethylpiperidino)propylamino]-5-chloroindazole]",36,310
"OC1CCN(CCCNc2n[nH]c3ccc(Cl)cc23)CC1 [(61), 3-[3-(4-Hydroxypiperidino)propylamino]-5-chloroindazole]",46,210
"Clc1ccc2[nH]nc(NCCCN3CCC(Cl)CC3)c2c1 [(62), 3-[3-(4-Chloropiperidino)propylamino]-5-chloroindazole]",65,312
"Clc1ccc2[nH]nc(NCCCN3CCCCCC3)c2c1 [(63), 3-(3-Homopiperidinopropylamino)-5-chloroindazole]",57,331
"CN1CCN(CCCNc2n[nH]c3ccc(Cl)cc23)CC1 [(64), 3-[3-(4-Methylpiperadino)propylamino]-5-chloroindazole]",29,229
"Clc1ccc2[nH]nc(NCCCN3CCCC3)c2c1 [(65), 3-(3-Pyrrolidinopropylamino)-5-chloroindazole]",36,136
"Clc1ccc2[nH]nc(NCCCN3CCOCC3)c2c1 [(66), 3-(3-Morpholinopropylamino)-5-chloroindazole]",46,246
"CCN(CC)CCCNc1n[nH]c2cccc(O)c12 [(67), 3-(3-Diethylaminopropylamino)-4-hydroxyindazole]",55,255
"CCN(CC)CCCNc1n[nH]c2ccc(O)cc12 [(68), 3-(3-Diethylaminopropylamino)-5-hydroxyindazole]",52,352
"CCN(CC)CCCNc1n[nH]c2cc(O)ccc12 [(69), 3-(3-Diethylaminopropylamino)-6-hydroxyindazole]",51,151
"CCN(CC)CCCNc1n[nH]c2c(O)cccc12 [(70), 3-(3-Diethylaminopropylamino)-7-hydroxyindazole]",56,156
"CCN(CC)CCCNc1n[nH]c2ccc(I)cc12 [(71), 3-(3-Diethylaminopropylamino)-5-iodoindazole]",56,256
"CCN(CC)CCCNc1n[nH]c2c(I)cccc12 [(72), 3-(3-Diethylaminopropylamino)-7-iodoindazole]",53,253
"CCN(CC)CCCNc1n[nH]c2c(N)cc(N)cc12 [(73), 3-(3-Diethylaminopropylamino)-5,7-diaminoindazole]",55,355
"CCCCN(CCCC)CCCNc1n[nH]c2ccc(O)cc12 [(74), 3-(3-Di-n-butylaminopropylamino)-5-hydroxyindazole]",53,253
"CC(CCNc1n[nH]c2ccc(O)cc12)N(C)C (stereo not shown) [(75), 3-(3-Dimethylaminobutylamino)-5-hydroxyindazole]",34,234
"CCN(CC)C(CCNc1n[nH]c2ccc(O)cc12)CC(C)C (stereo not shown) [(76), 3-(3-Diethylamino-5-methylhexylamino)-5-hydroxyindazole]",46,146
"Oc1ccc2[nH]nc(NCCCN3CCCCC3)c2c1 [(77), 3-(3-Piperidinopropylamino)-5-hydroxyindazole]",51,251
"Oc1ccc2[nH]nc(NCCCCCCN3CCCCC3)c2c1 [(78), 3-(6-Piperidinohexylamino)-5-hydroxyindazole]",25,225
"CC(CCNc1n[nH]c2ccc(O)cc12)N1CCCCC1 (stereo not shown) [(79), 3-(3-Piperidinobutylamino)-5-hydroxyindazole]",46,146
"CC(C)CC(CCNc1n[nH]c2ccc(O)cc12)N1CCCCC1 (stereo not shown) [(80), 3-(3-Piperidino-5-methylhexylamino)-5-hydroxyindazole]",32,332
"CC1CCCCN1CCCNc1n[nH]c2ccc(O)cc12 (stereo not shown) [(81), 3-[3-(2-Methylpiperidino)propylamino]-5-hydroxyindazole]",47,147
"CC1CCCC(C)N1CCCNc1n[nH]c2ccc(O)cc12 (stereo not shown) [(82), 3-[3-(2,6-Dimethylpiperidino)propylamino]-5-hydroxyindazole]",30,230
"Oc1ccc2[nH]nc(NCCCN3CCC(O)CC3)c2c1 [(83), 3-[3-(4-Hydroxypiperidino)propylamino]-5-hydroxyindazole]",34,134
"Oc1ccc2[nH]nc(NCCCN3CCC(Cl)CC3)c2c1 [(84), 3-[3-(4-Chloropiperidino)propylamino]-5-hydroxyindazole]",63,163
